Assays:
[1] = system: Amaranthus retroflexus; experiment: Pot test, herbicide sprayed on the soil surface after planting one-node stem cuttings: herbicidal efficacy; type: in vivo; conditions: Example 5; cuttings treated with strobilurin fungicides (kresoxim-methyl, azoxystrobin etc.); soil surface spray on day of planting; four weeks after application
Experimental: (§1) Stem cuttings of sugar cane, 30 cm to 40 cm long, are placed in wet soil to stimulate germination. Stem cuttings on which a bud grows to about 1 cm long are selected and the stem cuttings are cut to have one node and a length of 3 cm. Plastic pots are filled with soil and Amaranthus retroflexus is seeded therein. The stem cuttings of sugar cane are planted in the soil in the pots at a depth of 2 cm. […] The test pots are then placed in a greenhouse.
(§2) The herbicidal efficacy and phytotoxicity are determined four weeks after the application of the herbicides.
as §1, with “3 cm. The stem cuttings are treated with clothianidin, thiamethoxam, imidacloprid, dinotefuran, nitenpyram, acetamiprid, or thiacloprid. Plastic pots” for “3 cm. Plastic pots”, “sugar cane treated with the pesticides are planted” for “sugar cane are planted”
(§3) Stem cuttings of sugar cane, 30 cm to 40 cm long, are placed in wet soil to stimulate germination. Stem cuttings on which a bud grows to about 1 cm long are selected and the stem cuttings are cut to have one node and a length of 3 cm. The stem cuttings are treated with kresoxim-methyl, azoxystrobin, trifloxystrobin, fluoxastrobin, picoxystrobin, pyraclostrobin, dimoxystrobin, pyribencarb, metominostrobin, orysastrobin, enestrobin, pyraoxystrobin, or pyrametostrobin. Plastic pots are filled with soil and Amaranthus retroflexus is seeded therein. The stem cuttings of sugar cane treated with the fungicides are planted in the soil in the pots at a depth of 2 cm. […] The test pots are then placed in a greenhouse. The herbicidal efficacy and phytotoxicity are determined four weeks after the application of the herbicides.
Stem cuttings of sugar cane, 30 cm to 40 cm long, are placed in wet soil to stimulate germination. Stem cuttings on which a bud grows to about 1 cm long are selected and the stem cuttings are cut to have one node and a length of 3 cm. The stem cuttings are treated with azaconazole, bitertanol, bromuconazole, cyproconazole, difenoconazole, diniconazole, epoxiconazole, fenbuconazole, fluquinoconazole, flusilazole, flutriafol, hexaconazole, imibenconazole, ipconazole, metconazole, myclobutanil, penconazole, propiconazole, prothioconazole, simeconazole, tebuconazole, tetraconazole, triadimenol, triticonazole, fenarimol, nuarimol, pyrifenox, imazalil, oxpoconazole fumarate, peforazoate, prochloraz, or triflumizole. Plastic pots are filled with soil and Amaranthus retroflexus is seeded therein. The stem cuttings of sugar cane treated with the fungicides are planted in the soil in the pots at a depth of 2 cm. […] The test pots are then placed in a greenhouse. […]

[2] = system: sugar cane; experiment: Pot test, herbicide sprayed on the soil surface after planting one-node stem cuttings: phytotoxicity
Experimental: as §1, §2
as §1, with “3 cm. The stem cuttings are treated with clothianidin, thiamethoxam, imidacloprid, dinotefuran, nitenpyram, acetamiprid, or thiacloprid. Plastic pots” for “3 cm. Plastic pots”, “sugar cane treated with the pesticides are planted” for “sugar cane are planted”
as §3
Stem cuttings of sugar cane, 30 cm to 40 cm long, are placed in wet soil to stimulate germination. Stem cuttings on which a bud grows to about 1 cm long are selected and the stem cuttings are cut to have one node and a length of 3 cm. The stem cuttings are treated with azaconazole, bitertanol, bromuconazole, cyproconazole, difenoconazole, diniconazole, epoxiconazole, fenbuconazole, fluquinoconazole, flusilazole, flutriafol, hexaconazole, imibenconazole, ipconazole, metconazole, myclobutanil, penconazole, propiconazole, prothioconazole, simeconazole, tebuconazole, tetraconazole, triadimenol, triticonazole, fenarimol, nuarimol, pyrifenox, imazalil, oxpoconazole fumarate, peforazoate, prochloraz, or triflumizole. Plastic pots are filled with soil and Amaranthus retroflexus is seeded therein. The stem cuttings of sugar cane treated with the fungicides are planted in the soil in the pots at a depth of 2 cm. […] The test pots are then placed in a greenhouse.
as §1, with “3 cm. The stem cuttings are treated with metalaxyl or metalaxyl-M. Plastic pots” for “3 cm. Plastic pots”

[3] = Example 5, cuttings treated with strobilurin fungicides (kresoxim-methyl, azoxystrobin etc.), soil surface spray on day of planting, four weeks after application

| Molecule | herbicidal efficacy [1] | phytotoxicity [2, 3] | phytotoxicity ([2]; in vivo) |
| --- | --- | --- | --- |
| CCCN(CCC)c1c([N+](=O)[O-])cc(C(F)(F)F)cc1[N+](=O)[O-] [trifluralin] | the control effect against the weed can be observed | no phytotoxicity problematic to sugar cane is observed |  |
| Cc1cnc(C2=NC(=O)C(C)(C(C)C)N2)c(C(=O)O)c1 (centres unmarked) [imazapic] | the control effect against the weed can be observed |  | no phytotoxicity problematic to sugar cane is observed |
| CS(=O)(=O)c1cc(C(F)(F)F)ccc1C(=O)c1cnoc1C1CC1 [isoxaflutole] | the control effect against the weed can be observed |  | no phytotoxicity problematic to sugar cane is observed |
| CCC(CC)Nc1c([N+](=O)[O-])cc(C)c(C)c1[N+](=O)[O-] [pendimethalin] | the control effect against the weed can be observed | no phytotoxicity problematic to sugar cane is observed |  |
| COc1c(Cl)ccc(Cl)c1C(=O)[O-].[Na+] [dicamba-sodium] | the control effect against the weed can be observed | no phytotoxicity problematic to sugar cane is observed |  |
| CCc1cccc(CC)c1N(COC)C(=O)CCl [alachlor] | the control effect against the weed can be observed | no phytotoxicity problematic to sugar cane is observed |  |
| CS(=O)(=O)c1ccc(C(=O)C2C(=O)CCCC2=O)c([N+](=O)[O-])c1 [mesotrione] | the control effect against the weed can be observed | no phytotoxicity problematic to sugar cane is observed |  |
| bicyclopyrone | the control effect against the weed can be observed | no phytotoxicity problematic to sugar cane is observed |  |
| CCc1cccc(C)c1N(C(=O)CCl)C(C)COC (centres unmarked) [metolachlor] | the control effect against the weed can be observed | no phytotoxicity problematic to sugar cane is observed |  |
| CCNc1nc(Cl)nc(NC(C)C)n1 [atrazine] | the control effect against the weed can be observed | no phytotoxicity problematic to sugar cane is observed |  |
| CNC.COc1c(Cl)ccc(Cl)c1C(=O)O [dicamba-dimethylamine] | the control effect against the weed can be observed | no phytotoxicity problematic to sugar cane is observed |  |
| COc1cc(OC)nc(NC(=O)[N-]S(=O)(=O)c2ncccc2OCC(F)(F)F)n1.[Na+] [trifloxysulfuron-sodium] | the control effect against the weed can be observed | no phytotoxicity problematic to sugar cane is observed |  |
| CCNc1nc(Cl)nc(NCC)n1 [simazine] | the control effect against the weed can be observed | no phytotoxicity problematic to sugar cane is observed |  |
| CCOc1ccccc1OS(=O)(=O)NC(=O)Nc1nc(OC)cc(OC)n1 [ethoxysulfuron] | the control effect against the weed can be observed |  | no phytotoxicity problematic to sugar cane is observed |
| CC(C)c1nn(C(=O)NC(C)(C)C)c(=O)n1N [amicarbazone] | the control effect against the weed can be observed | no phytotoxicity problematic to sugar cane is observed |  |
| CCc1cccc(C)c1N(C(=O)CCl)[C@@H](C)COC [S-metolachlor] | the control effect against the weed can be observed | no phytotoxicity problematic to sugar cane is observed |  |
| CN(C)c1nc(=O)n(C2CCCCC2)c(=O)n1C [hexazinone] | the control effect against the weed can be observed |  | no phytotoxicity problematic to sugar cane is observed |
| COc1c(Cl)ccc(Cl)c1C(=O)O [dicamba] | the control effect against the weed can be observed | no phytotoxicity problematic to sugar cane is observed |  |
| COC(=O)c1ccc(I)cc1S(=O)(=O)[N-]C(=O)Nc1nc(C)nc(OC)n1.[Na+] [iodosulfuron-methyl-sodium] | the control effect against the weed can be observed | no phytotoxicity problematic to sugar cane is observed |  |
| CCNc1nc(NC(C)C)nc(SC)n1 [ametryn] | the control effect against the weed can be observed |  | no phytotoxicity problematic to sugar cane is observed |
| CNC(=O)N(C)c1nnc(C(C)(C)C)s1 [tebuthiuron] | the control effect against the weed can be observed | no phytotoxicity problematic to sugar cane is observed |  |
| CC1(C)CON(Cc2ccccc2Cl)C1=O [clomazon] | the control effect against the weed can be observed |  |  |
| COC(=O)c1c(Cl)nn(C)c1S(=O)(=O)NC(=O)Nc1nc(OC)cc(OC)n1 [halosulfuron-methyl] | the control effect against the weed can be observed | no phytotoxicity problematic to sugar cane is observed |  |
| CSc1nnc(C(C)(C)C)c(=O)n1N [metribuzin] | the control effect against the weed can be observed | no phytotoxicity problematic to sugar cane is observed |  |
| CN(C)C(=O)Nc1ccc(Cl)c(Cl)c1 [diuron] | the control effect against the weed can be observed | no phytotoxicity problematic to sugar cane is observed |  |
| COc1c(Cl)ccc(Cl)c1C(=O)[O-].[K+] [dicamba-potassium] | the control effect against the weed can be observed | no phytotoxicity problematic to sugar cane is observed |  |
| COc1c(Cl)ccc(Cl)c1C(=O)O.NCCOCCO [dicamba-diglycolamine] | the control effect against the weed can be observed | no phytotoxicity problematic to sugar cane is observed |  |
